Test [1] is described as follows: Binding affinity to Glutamate receptor 2 E705D mutant S1S2 ligand binding domain assessed as induction protein vibrational state by time resolved FTIR difference spectra method.
Test [2] can be described thus: Binding affinity to Glutamate receptor 2 Y450F mutant S1S2 ligand binding domain assessed as induction protein vibrational state by time resolved FTIR difference spectra method.

Experimental findings from ChEMBL document CHEMBL1221174, “Evolution of glutamate interactions during binding to a glutamate receptor” (Nat Chem Biol, 2005) are described below.

Active and inactive are the calls of the source. No cut-off for these calls is given here.

As to `N[C@@H](CCC(=O)O)C(=O)O`, the outcome in test [1] and in test [2] was Active.
